These results are taken from ChEMBL document CHEMBL1177693, “Antimalarials from nature” (Bioorg Med Chem, 2009).

In brackets after ≈: the same amount, converted by molar mass.

One experiment concerns Plasmodium falciparum. Put plainly: Antimalarial activity against chloroquine-resistant Plasmodium falciparum Dd2. The format is functional, organism-based.
Details: not given
For `C=C1C(=O)O[C@H]2[C@H]1[C@@H](OC(C)=O)CC(=C)[C@]1(O)CC=C(C)[C@H]21`, the IC50 (commonly the concentration needed to halve the response being measured) is 10.8 mg/L (≈ 35.5 µM). Still for that read-out and setting: the figure for `COc1ccc(-c2cc(=O)oc3c(OC)c(OC)cc(OC)c23)cc1` is 3.6 mg/L (≈ 10.5 µM); for `COc1ccc(-c2cc(=O)c3c(O)cc(O)cc3o2)cc1` [ACACETIN] it is 12.6 mg/L (≈ 44.3 µM); for `COc1ccc(-c2coc3cc(O)ccc3c2=O)cc1O` [CALYCOSIN] it is 9.8 mg/L (≈ 34.5 µM). Same read-out and setting: the figure for `O=c1c(-c2ccc(O)cc2)coc2cc(O)cc(O)c12` [GENISTEIN] is 4.1 mg/L (≈ 15.2 µM).

A further experiment concerns the target T1, Enoyl-acyl-carrier protein reductase (Plasmodium falciparum, UniProt Q965D5).
T1 sequence (Q965D5 whole entry): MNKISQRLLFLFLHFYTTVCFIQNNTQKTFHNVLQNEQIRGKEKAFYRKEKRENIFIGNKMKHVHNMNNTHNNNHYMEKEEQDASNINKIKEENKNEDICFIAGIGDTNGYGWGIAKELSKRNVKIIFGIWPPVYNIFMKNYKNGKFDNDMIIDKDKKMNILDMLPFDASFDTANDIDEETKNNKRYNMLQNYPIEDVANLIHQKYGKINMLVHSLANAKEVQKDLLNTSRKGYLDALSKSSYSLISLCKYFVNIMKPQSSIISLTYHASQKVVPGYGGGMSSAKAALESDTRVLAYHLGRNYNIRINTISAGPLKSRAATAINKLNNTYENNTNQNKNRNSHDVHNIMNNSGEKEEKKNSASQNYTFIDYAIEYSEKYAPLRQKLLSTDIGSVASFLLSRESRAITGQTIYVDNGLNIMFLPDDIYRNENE
Put plainly: Inhibition of Plasmodium falciparum Fabl.
Details: not given
In turn, `OCC1=C[C@@H]2OCC[C@@H]2[C@@H]1CO` had an IC50 of 588 µM. Compound `O=c1cc(-c2ccc(O)c(O)c2)oc2cc(O[C@@H]3O[C@H](CO)[C@@H](O)[C@H](O)[C@H]3O)cc(O)c12` [GALUTEOLIN] had an IC50 of 22.3 µM.

The next experiment deals with Plasmodium falciparum. Put plainly: Antimalarial activity against Plasmodium falciparum NF54. The experiment is classed as functional, organism-based.
Details: not given
`C[C@@H]1O[C@@H](Oc2cc3oc(-c4ccc(O)c(O)c4)cc(=O)c3c(O)c2O)[C@H](O)[C@H](O)[C@H]1O` returned an IC50 of 3.32 µM.

As for `COc1c2c(c(O)c3c4c(c(C)cc13)[C@@H]1O[C@@]3(C(OC)OC)O[C@@H]1[C@@](O[C@H]1C[C@@H](O)[C@@](O)(C(C)=O)[C@H](C)O1)(O4)[C@@]31CO1)C(=O)[C@@H](O)C[C@@H]2O[C@H]1C[C@@](C)(O)[C@H](OC(C)=O)[C@H](C)O1` [TRIOXACARCIN A], the IC50 is 0.0017 mg/L. Same read-out and setting: the figure for `COc1c2c(c(O)c3c4c(c(C)cc13)[C@@H]1O[C@@]3(C(OC)OC)O[C@@H]1[C@@](O[C@H]1C[C@@H](O)[C@@](O)(C(C)=O)[C@H](C)O1)(O4)[C@@]31CO1)C(=O)[C@@H](O)C[C@@H]2O[C@H]1C[C@@](C)(O)[C@H](O)[C@H](C)O1` [TRIOXACARCIN D] is 0.0017 mg/L.

For another experiment, the system named is Plasmodium falciparum. Put plainly: Antimalarial activity against chloroquine-sensitive Plasmodium falciparum PoW. The experiment is classed as functional, organism-based.
Details: not given
In turn, `COc1ccc(-c2cc(=O)c3c(O)cc(O)cc3o2)cc1` [ACACETIN] returned an IC50 of 5.5 mg/L (≈ 19.3 µM). `COc1ccc(-c2coc3cc(O)ccc3c2=O)cc1O` [CALYCOSIN] displayed a 50% inhibitory concentration (IC50) of 4.2 mg/L (≈ 14.8 µM). `O=c1c(-c2ccc(O)cc2)coc2cc(O)cc(O)c12` [GENISTEIN] showed an IC50 of 2 mg/L (≈ 7.4 µM).

For a further experiment, the system named is Plasmodium falciparum. Put plainly: Antimalarial activity against chloroquine-sensitive Plasmodium falciparum D6. The experiment is classed as functional, organism-based.
Details: not given
Compound `COc1ccc(C[C@H]2NC[C@H](O)[C@H]2OC(C)=O)cc1` [ANISOMYCIN] yielded an IC50 of 4.6 µM. Compound `C/C=C/C/C=C/CCC(=O)[C@H]1O[C@H]1C(N)=O` [CERULENIN] returned an IC50 of 10.1 µM. Consider `O=C(O)[C@@H]1[C@H](C(=O)O)[C@H]2CC[C@@H]1O2` [ENDOTHALL], for which the IC50 came out at 7.8 µM.

In the next experiment the test system is Plasmodium falciparum. Kind of experiment: Antimalarial activity against Plasmodium falciparum. The experiment is classed as functional, organism-based. Conditions: Plasmodium falciparum.
Regarding `C=C(C)[C@@H]1CC[C@]2(C)CC[C@]3(C)[C@H](CC[C@@H]4[C@@]5(C)CC[C@H](O)C(C)(C)[C@@H]5CC[C@]43C)[C@@H]12` [LUPEOL], 13.1 µM (≈ 5.58 µg/mL) was the least that counted as inhibitory (MIC).

`O[C@H]1[C@H]2c3cc4c(cc3CN3CCC(=C[C@@H]1O)[C@H]23)OCO4` [LYCORINE] showed an IC50 of 0.62 mg/L.

Regarding `COc1c(O)cc2oc3cc(O)c(CC=C(C)C)c(O)c3c(=O)c2c1CC=C(C)C` [MANGOSTIN], it took 17 µM to reach half-maximal inhibition (IC50).

For `O=C1OC(O)C(Br)=C1Br` (configuration not stated) [MUCOBROMIC ACID], the IC50 came out at 0.359 mg/L. On the same count and under the same terms, the figure for `O=C1OC(O)C(Cl)=C1Cl` (configuration not stated) [MUCOCHLORIC ACID] is 0.137 mg/L; for `C/C=C(/CO[C@H]1O[C@@H](CO)[C@H](O)[C@@H](O)[C@@H]1O)c1cc2n(c(=O)c1CO)CCc1c-2[nH]c2ccccc12` [NAUCLEOFFICINE A] it is 9.7 µM. Same read-out and setting: the figure for `CC(O)c1cncc2c(=O)n3c(cc12)-c1[nH]c2ccc(O)cc2c1CC3` (configuration not stated) [NAUCLEOFFICINE E] is 38.3 µM; for `C=C1C(=O)O[C@@H]2C[C@@H](C)/C=C\C(=O)[C@@](C)(O)[C@H](OC(C)=O)[C@@H](OC(=O)CC(C)C)[C@@H]12` [NEUROLENIN B] it is 0.62 µM; for `CC1=CC(=O)[C@@H](O)[C@]2(C)[C@H]3[C@]4(O)OC[C@@]35[C@@H](C[C@@H]12)OC(=O)[C@H](O)[C@@]5(O)[C@@]1(CO1)[C@H]4O` [PASAKBUMIN B] it is 0.0226 mg/L. On the same count and under the same terms, the figure for `CC1=CC(=O)[C@@H](O)[C@]2(C)[C@H]3[C@]4(O)OC[C@@]35[C@@H](C[C@@H]12)OC(=O)[C@H](O)[C@@]5(O)[C@H](C)[C@H]4O` [PASAKBUMIN C] is 0.0933 mg/L; for `CC1=CC(=O)c2c(O)cccc2C1=O` [PLUMBAGIN] it is 0.27 µM. As for `COc1ccc2c(c1O)CCc1cc(O)c(C)c3c1C2CC(C)(C)O3` (stereo not drawn) [RACEMOSOL], the response was half-maximal at 0.9 mg/L (≈ 2.64 µM) (EC50). As for `CC(C)=CCc1cc(/C=C/C(=O)c2cc(CC=C(C)C)c(O)cc2O)ccc1O` [STIPULIN], half-maximal inhibition (IC50) required 5.13 µM.

Another experiment deals with Plasmodium falciparum. Kind of experiment: Antimalarial activity against Plasmodium falciparum K1. The format is functional, organism-based.
Details: not given
`C[C@@H]1O[C@@H](Oc2cc3oc(-c4ccc(O)c(O)c4)cc(=O)c3c(O)c2O)[C@H](O)[C@H](O)[C@H]1O` yielded an IC50 of 2.13 µM. Same read-out and setting: the figure for `COc1c2c(c(O)c3c4c(c(C)cc13)[C@@H]1O[C@@]3(C(OC)OC)O[C@@H]1[C@@](O[C@H]1C[C@@H](O)[C@@](O)(C(C)=O)[C@H](C)O1)(O4)[C@@]31CO1)C(=O)[C@@H](O)C[C@@H]2O[C@H]1C[C@@](C)(O)[C@H](OC(C)=O)[C@H](C)O1` [TRIOXACARCIN A] is 0.0015 mg/L; for `COc1c2c(c(O)c3c4c(c(C)cc13)[C@@H]1O[C@@]3(C(OC)OC)O[C@@H]1[C@@](O[C@H]1C[C@@H](O)[C@@](O)(C(C)=O)[C@H](C)O1)(O4)[C@@]31CO1)C(=O)[C@@H](O)C[C@@H]2O[C@H]1C[C@@](C)(O)[C@H](O)[C@H](C)O1` [TRIOXACARCIN D] it is 0.0015 mg/L.
